Results taken from US11795196B2, “Mitochondria-targeting peptides” (Stealth BioTherapeutics Corp., priority 2017, dated 2023).

Tests used:
isolated rat hearts = assay: Ischemia-reperfusion injury, Langendorff isolated heart preparation; conditions: 30 min LAD occlusion + 120 min reperfusion, compound 1 μM in perfusion solution, mean; for White Necrotic Area, % of area at risk: only white necrotic tissue
rat [1] = assay: Rat Acute Kidney Injury (AKI) Model, renal ischemia-reperfusion; assay type: in vivo; set-up: concentration or dose not given beside the values; conditions: 30 minutes renal artery occlusion of both kidneys, 24 hours after reperfusion, relative to vehicle
Experimental: The Rat Acute Kidney Injury (AKI) Model was performed by IPST Therapeutique Inc, Sherbrooke, Quebec, Canada. The animals were randomized in terms of even distribution between treatment groups based on their body weight by the Study Director with the aim of scheduling animal from each group at each day of surgery. The rats will be given free access to food and water. Experimental Procedures Induction of Ischemia-Reperfusion • 1. Rats will be anaesthetized with isoflurane USP (Abbot Laboratories, Montreal Canada) 2% in oxygen and placed on a heated pad to maintain body temperature. The ECG and oxygen saturation will be monitored for the entire surgical process. The body temperature will be monitored with a probe thermometer introduced into the abdomen, very close to the kidneys. • 2. A 1 mL blood draw will be taken from the jugular vein. The blood will be collected into lithium heparin tubes and centrifuged at 3000 rpm for 10 min. to obtain the plasma. The plasma will be separated into 200 μL aliquot and stored at −20° C. until dosage of biomarkers. • 3. The abdomen will be disinfected with providone iodine and alaparotomy will be performed. • 4. The kidneys will be exposed and a temporary suture will be placed around renal artery of the two kidneys. Renal ischemia will be visually confirmed by a gradual changed of the kidneys colour going from red to dark purple within a couple of minutes following the start of the ischemia. During the ischemia, the kidneys will be kept moist and warm using a heat lamp and sterile gauze soaked in warm (37° C.) saline. The temperature will be monitored with a probe thermometer introduced into the abdomen, very close to the kidneys. • 5. After 30 minutes of occlusion, the suture will be removed. • 6. The abdominal wounds will be closed with 4-0 silk suture, and the animal will be return to its cage. • 7. Twenty-four hours after reperfusion the rats will be re-anesthetized. A second blood draw will be taken as was done before the ischemia. • 8. Sham will be treated under same conditions as vehicle, except, kidneys will not be subjected to ischemic conditions. Detection of Biomarkers A 200 μL aliquot of plasma sample will be taken before the ischemia and 24 hours following the ischemia; both will be sent to the clinical laboratory of the CHUS (Centre Hospitalier Universitaire de Sherbrooke, Quebec, Canada) for detection of plasma level of creatinine (p.Cr) and Blood Urea Nitrogen (BUN). Computer Systems The following are the validated computer systems to be used during the conduct of this study. The analysis software will be Microsoft Office Excel 2007 installed on networked personal computers running Microsoft Windows8, XP Professional or Vista. Data Analysis Values are presented as means±SEM (standard error of the means) and presented by the symbol+on the graph. Repeat un-paired Student's t-tests were performed in Microsoft Excel 2007 on all experimental data. Differences were considered significant when p≤ 0.05. The vehicle group was compared to the sham group while the test article was compared to the vehicle group. The plasma creatinine post-UR (% mean of vehicle) was calculated using the following formula:
[formula] Where: p.Cr=Plasma creatinine Mean Δ plasma creatinine in sham group=Mean (plasma creatinine 24 h post-isch.−plasma creatinine pre-isch.) in sham group Mean Δ plasma creatinine in vehicle group=Mean ((plasma creatinine 24 h post-inch.−plasma creatinine pre-isch.)−Mean Δ plasma creatinine in sham group) in vehicle group The BUN post-I/R (% mean of vehicle) was calculated using the following formula:
[formula] […]

rat [2] = assay: Rat Myocardial Infarction Model; assay type: in vivo; conditions: s.c. 2×2 mg/kg, 30 min before ischemia and 5 min before reperfusion, 30 min LAD occlusion, 24 hours post-reperfusion, n=8
Experimental: The Rat Myocardial Infarction Model was performed by IPST Therapeutique Inc, Sherbrooke, Quebec, Canada. The animals were randomized in terms of even distribution between treatment groups based on their body weight by the Study Director with the aim of scheduling animal from each treatment group for each day of surgery (when possible). • 1) Sham group: size of the group: n=2. Route of administration: n/a; • 2) Vehicle group: size of the group: n=8. Route of administration: s.c.; • 3) Testing article group: size of the group: n=8. Route of administration: s.c.; Treatment dose: 2×2 mg/kg, 30 min before ischemia and 5 min before reperfusion. Experimental Procedures Study Design • 1) On the day of the surgery, the rat will be anaesthetized with a mixture of 2 to 2.5%. isoflurane USP (Abbot Laboratories, Montreal Canada) in oxygen, and placed on a heating pad to maintain body temperature. • 2) The animal will be intubated and immediately ventilated by means of a positive-pressure rodent respirator set at 10 mL/kg bodyweight at a frequency of 65-70 strokes/min. • 3) A baseline blood sample (1 mL) will be taken from the jugular vein for baseline biomarkers quantification. The blood will be collected in lithium heparin microtainers and centrifuged at 3000 rpm, at 4±2° C. for 10 minutes. The plasma will be aliquoted in 2 samples of equal volume (approximately 250 μL). […] A 1 mL blood sample will be taken from the jugular vein, for 24 hrs biomarkers quantification. • 11) The heart will be excised and mounted into a Langendorff apparatus. […]

Row | Structure (SMILES) | Infarct size, % of area at risk (isolated rat hearts) [%] | White Necrotic Area, % of area at risk (isolated rat hearts) [%] | BUN, % Protection, Mean (rat [1]) [%] | Plasma Creatinine, % Protection, Mean (rat [1]) [%] | Infarct size (%), Mean (rat [2]) [%]
1 | Cc1cc(O)cc(C)c1C[C@H](NC(=O)[C@H](N)CCCn1ccnc1N)C(=O)N[C@@H](CCCCN)c1nc(CC2CCCCC2)no1 [Example 65, (R)-2-amino-N-((S)-1-(((S)-5-amino-1-(3-(cyclohexylmethyl)-1,2,4-oxadiazol-5 yl)pentyl)amino)-3-(4-hydroxy-2,6-dimethylphenyl)-1-oxopropan-2-yl)-5-(2-amino-1H-imidazol-1-yl)pentanamide] | 24 | 17 | – | – | –
2 | Cc1cc(O)cc(C)c1C[C@H](NC(=O)[C@H](N)CCCNC(=N)N)C(=O)N[C@@H](CCCCN)c1nc(CC23CC4CC(CC(C4)C2)C3)no1 [Example 37, (R)-N-((S)-1-(((S)-1-(3-(adamantan-1-ylmethyl)-1,2,4-oxadiazol-5-yl)-5-aminopentyl)amino)-3-(4-hydroxy-2,6-dimethylphenyl)-1-oxopropan-2-yl)-2-amino-5-guanidinopentanamide] | – | – | 44.3 | 30.7 | 29.2
3 | Cc1cc(O)cc(C)c1C[C@H](NC(=O)[C@H](N)CCCNC(=N)N)C(=O)N[C@@H](CCCCN)c1nc(C23CC4CC(CC(C4)C2)C3)no1 [Example 38, D-Arg-DMT-NH((S)-1-(3-(adamantan-1-yl)-1,2,4-oxadiazol-5-yl)-5-aminopent-1-yl)] | 31 | 15 | – | – | 30.6
4 | Cc1cc(O)cc(C)c1C[C@H](NC(=O)[C@H](N)CCNC(=N)N)C(=O)N[C@@H](Cc1c[nH]cn1)c1nc(CC23CC4CC(CC(C4)C2)C3)no1 [Example 68, (R)-N-((S)-1-(((S)-1-(3-(adamantan-1-yl)methyl-1,2,4-oxadiazol-5-yl)-2-(1H-imidazol-4 yl)ethyl)amino)-3-(4-hydroxy-2,6-dimethylphenyl)-1-oxopropan-2-yl)-2-amino-4-guanidinobutanamide] | 35 | 18 | – | – | –
5 | Cc1cc(O)cc(C)c1C[C@H](NC(=O)[C@H](N)CCCNC(=N)N)C(=O)N[C@@H](CCCCN)c1nc(Cc2ccc(C(C)(C)C)cc2)no1 [Example 33, (R)-2-amino-N-((S)-1-(((S)-5-amino-1-(3-(4-(tert-butyl)benzyl)-1,2,4-oxadiazol-5 yl)pentyl)amino)-3-(4-hydroxy-2,6-dimethylphenyl)-1-oxopropan-2-yl)-5-guanidinopentanamide] | – | – | 35.9 | 38.9 | –
6 | Cc1cc(O)cc(C)c1C[C@H](NC(=O)[C@@H](CCN)NC(=N)N)C(=O)N[C@@H](CCCN)c1nc(Cc2ccccc2)no1 [Example 82, (R)-4-amino-N-((S)-1-(((5)-4-amino-1-(3-benzyl-1,2,4-oxadiazol-5-yl)butyl)amino)-3-(4-hydroxy-2,6-dimethylphenyl)-1-oxopropan-2-yl)-2-guanidinobutanamide] | 42 | 24 | 25.5 | 32.0 | –
7 | Cc1cc(O)cc(C)c1C[C@H](NC(=O)[C@H](N)CCNC(=N)N)C(=O)N[C@@H](CCCCN)c1nc(Cc2ccccc2)no1 [Example 64, (R)-2-amino-N-((S)-1-(((S)-5-amino-1-(3-benzyl-1,2,4-oxadiazol-5 yl)pentyl)amino)-3-(4-hydroxy-2,6-dimethylphenyl)-1-oxopropan-2-yl)-4-guanidinobutanamide] | 38 | 20 | – | – | –
8 | Cc1cc(O)cc(C)c1C[C@H](NC(=O)[C@H](N)CCCn1ccnc1N)C(=O)N[C@@H](CCCN)c1nc(CC2CCCCC2)no1 [Example 42, (R)-2-amino-N-((S)-1-(((S)-4-amino-1-(3-(cyclohexylmethyl)-1,2,4-oxadiazol-5 yl)butyl)amino)-3-(4-hydroxy-2,6-dimethylphenyl)-1-oxopropan-2-yl)-5-(2-amino-1H-imidazol-1-yl)pentanamide] | – | – | 50.4 | 53.4 | –
9 | Cc1cc(O)cc(C)c1C[C@H](NC(=O)[C@H](N)CCCNC(=N)N)C(=O)N[C@@H](CCCCN)c1nc(Cc2ccccc2)no1 [Example 31, (R)-2-amino-N-((S)-1-(((S)-5-amino-1-(3-benzyl-1,2,4-oxadiazol-5-yl)pentyl)amino)-3-(4-hydroxy-2,6-dimethylphenyl)-1-oxopropan-2-yl)-5-guanidinopentanamide] | 35 | 22 | 81.4 | 86.2 | 16.4
10 | Cc1cc(O)cc(C)c1C[C@H](NC(=O)[C@H](N)CCCNC(=N)N)C(=O)N[C@@H](Cc1c[nH]cn1)c1nc(CCc2ccccc2)no1 [Example 53, (R)-N-((S)-1-(((S)-2-(1H-imidazol-4-yl)-1-(3 phenethyl-1,2,4-oxadiazol-5 yl)ethyl)amino)-3-(4-hydroxy-2,6-dimethylphenyl)-1-oxopropan-2-yl)-2-amino-5-guanidinopentanamide] | 30 | 21 | – | – | –
